US7049066B2, “Diagnosis and treatment of myocardial failure” (The Regents of the University of Colorado, priority 1997, dated 2006)

Legend:
[1] = test system: isolated right ventricular (RV) trabeculae from end-stage failing human hearts; conditions: 1 nM T3, incubated for 4 or 12 hours
α-MHC = conditions: hypothyroid rats; cited from earlier work

SMILES: N[C@@H](Cc1cc(I)c(Oc2ccc(O)c(I)c2)c(I)c1)C(=O)O [T3, 3,5,3′-triiodo-L-thyronine]
- SRCA gene expression, T3 group compared to control group [1]: no significant differences
- adrenergic receptor gene expression, T3 group compared to control group [1]: no significant differences
- % α-MHC isoform mRNA present following incubation ([1]; p < .05 vs. no T3): 24.5 ± 9.29 %
- % β-MHC isoform mRNA present following incubation ([1]; p < .05 vs. no T3): 75.5 ± 9.29 %

SMILES: O=C(O)CCc1cc(I)c(Oc2ccc(O)cc2)c(I)c1 [3,5-diiodothyroproprionic acid]
- production of α-MHC (α-MHC): increase the production of (α-MHC
